Data on twelve compounds can be found in patent US20240067631A1, “PYRAZOLE DERIVATIVES USEFUL AS NAMPT MODULATORS” (Cytokinetics, Inc., priority 2020, published 2024).

This assay deals with human NAMPT (Homo sapiens (Human), UniProt P43490). As to the kind of experiment: Human recombinant enzyme assay (NMN fluorescence biochemical assay). To be noted: 6 nM human NAMPT, 60 min; for AC1.4 Human: concentration of compound that generates 40% higher activity over basal; for EC50: concentration that gives half-maximal activation. How it is done:
Compounds described herein were assayed for their ability to stimulate the synthesis of nicotinamide mononucleotide (NMN) by the enzyme NAMPT. The human recombinant enzyme assay measures the activation of the enzyme activity by compounds using recombinant enzyme and substrates in a buffered cell-free system. The assay conditions closely mimic cellular environments. Dose responses were measured using an assay to detect the formation of nicotinamide mono-nucleotide. All experiments were performed in the 384-well format. Generally, 0.5 μL of DMSO containing varying concentrations of the test compound was mixed with 10 μL of the enzyme reagent solution. Enzyme reactions were initiated with the addition of 10 μL of a solution containing the substrates. The final assay conditions were as follows: 6 nM human NAMPT, 2.5 mM ATP, […] in 50 mM HEPES, pH 7.2, 1 mM DTT, 1 mM CHAPS 50 mM NaCl, 100 mM MgCl2. Following an incubation of 60 min at ambient temperature, 10 μL of 20% acetophenone in DMSO was added, followed by 10 μL of 2 M KOH and 40 μL of formic acid. The plates were read for fluorescence (Excitation/Emission=355 nm/460 nm) using an EnVision plate reader after 40 mins of incubation at ambient temperature. The potency measurements for compounds, are quantified and represented as AC1.4 (the concentration of compounds that generates 40% higher activity over basal) and EC50 (concentration of the compound that gives half-maximal activation).

human NAMPT, sequence (P43490 whole entry): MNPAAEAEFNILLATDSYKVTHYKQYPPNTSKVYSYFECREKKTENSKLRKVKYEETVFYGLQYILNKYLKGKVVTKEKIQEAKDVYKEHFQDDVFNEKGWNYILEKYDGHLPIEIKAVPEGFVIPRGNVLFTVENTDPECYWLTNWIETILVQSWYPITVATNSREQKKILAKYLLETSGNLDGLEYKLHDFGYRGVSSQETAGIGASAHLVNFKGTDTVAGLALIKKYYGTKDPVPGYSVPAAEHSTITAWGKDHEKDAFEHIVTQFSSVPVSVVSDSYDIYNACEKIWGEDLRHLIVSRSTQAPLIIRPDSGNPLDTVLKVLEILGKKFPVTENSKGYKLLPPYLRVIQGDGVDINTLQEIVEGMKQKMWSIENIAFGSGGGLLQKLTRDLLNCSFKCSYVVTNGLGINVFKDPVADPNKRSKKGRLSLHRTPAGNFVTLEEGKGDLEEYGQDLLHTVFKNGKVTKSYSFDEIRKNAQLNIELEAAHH

As a reminder, the EC50 is the concentration giving half of the maximal effect. For `Cc1cccc(F)c1NC(=O)c1nc(C)c(C)c(NCCc2cn[nH]c2)n1` [Compound 139, 4-((2-(1H-pyrazol-4-yl)ethyl)amino)-N-(2-fluoro-6-methylphenyl)-5,6-dimethylpyrimidine-2-carboxamide], the “AC1.4 Human” value worked out at 3.809 µM and the EC50 came out at 28.5 µM.
As for `Cc1nc(C(=O)NC(C)(C)c2ccc(F)cc2)nc(NCCc2cn[nH]c2)c1C` [Compound 83, 4-((2-(1H-pyrazol-4-yl)ethyl)amino)-N-(2-(4-fluorophenyl)propan-2-yl)-5,6-dimethylpyrimidine-2-carboxamide], the “AC1.4 Human” value was determined as 0.9695 µM and the EC50 was 14.5 µM.
`Cc1nc(C(=O)N2CCOCC2c2ccccc2Cl)nc(NCCc2cn[nH]c2)c1C` (stereo not drawn) [Compound 80, (4-((2-(1H-pyrazol-4-yl)ethyl)amino)-5,6-dimethylpyrimidin-2-yl)(3-(2-chlorophenyl)morpholino)methanone]: the “AC1.4 Human” value turned out to be 0.877 µM and the EC50 is 10.4 µM.
Turning to `Cc1nc(C(=O)N[C@@H](C)c2ccccn2)nc(NCCc2cn[nH]c2)c1C` [Compound 137, (S)-4-((2-(1H-pyrazol-4-yl)ethyl)amino)-5,6-dimethyl-N-(1-(pyridin-2-yl)ethyl)pyrimidine-2-carboxamide], the “AC1.4 Human” value came to 3.794 µM and the EC50 is 34.5 µM.
With `Cc1nc(C(=O)NC(C)(C)Cc2cccc(F)c2)nc(NCCc2cn[nH]c2)c1C` [Compound 41, 4-((2-(1H-pyrazol-4-yl)ethyl)amino)-N-(1-(3-fluorophenyl)-2-methylpropan-2-yl)-5,6-dimethylpyrimidine-2-carboxamide], the “AC1.4 Human” value was determined as 0.2615 µM and the concentration giving a half-maximal response (EC50) was found to be 2.87 µM.
For `Cc1nc(C(=O)NCCc2ccncc2F)nc(NCCc2cn[nH]c2)c1C` [Compound 113, 4-((2-(1H-pyrazol-4-yl)ethyl)amino)-N-(2-(3-fluoropyridin-4-yl)ethyl)-5,6-dimethylpyrimidine-2-carboxamide], the “AC1.4 Human” value came to 2.084 µM and the EC50 was 18.3 µM.
Take `COc1cccc(CNC(=O)c2nc(C)c(C)c(NCCc3cn[nH]c3)n2)n1` [Compound 88, 4-((2-(1H-pyrazol-4-yl)ethyl)amino)-N-((6-methoxypyridin-2-yl)methyl)-5,6-dimethylpyrimidine-2-carboxamide]: the “AC1.4 Human” value was found to be 1.1435 µM and the EC50 was found to be 7.21 µM.
Regarding `Cc1nc(C(=O)NC2CC(F)(F)c3ccccc32)nc(NCCc2cn[nH]c2)c1C` (stereo not drawn) [Compound 79, 4-((2-(1H-pyrazol-4-yl)ethyl)amino)-N-(3,3-difluoro-2,3-dihydro-1H-inden-1-yl)-5,6-dimethylpyrimidine-2-carboxmaide], the “AC1.4 Human” value turned out to be 0.8395 µM and the EC50 worked out at 4.62 µM.
Turning to `Cc1nc(C(=O)NC(c2ccccc2F)c2nccn2C)nc(NCCc2cn[nH]c2)c1C` (stereo not drawn) [Compound 98, 4-((2-(1H-pyrazol-4-yl)ethyl)amino)-N-((2-fluorophenyl)(1-methyl-1H-imidazol-2-yl)methyl)-5,6-dimethylpyrimidine-2-carboxamide], the “AC1.4 Human” value is 1.3275 µM and the 50% effective concentration (EC50) was found to be 5.15 µM.
`Cc1nc(C(=O)NC(C)c2cncs2)nc(NCCc2cn[nH]c2)c1C` (stereo not drawn) [Compound 103, 4-((2-(1H-pyrazol-4-yl)ethyl)amino)-5,6-dimethyl-N-(1-(thiazol-5-yl)ethyl)pyrimidine-2-carboxamide]: the “AC1.4 Human” value is 1.6375 µM and the concentration for a half-maximal effect (EC50) worked out at 21.5 µM.
Turning to `COC1(c2ccccc2)CN(C(=O)c2nc(C)c(C)c(NCCc3cn[nH]c3)n2)C1` [Compound 102, (4-((2-(1H-pyrazol-4-yl)ethyl)amino)-5,6-dimethylpyrimidin-2-yl)(3-methoxy-3-phenylazetidin-1-yl)methanone], the “AC1.4 Human” value turned out to be 2.0105 µM and the EC50 was 12.9 µM.
In the case of `CNC(=O)c1nc(C)c(C)c(N(CCc2ccccc2)CCc2cn[nH]c2)n1` [Compound 2, 4-((2-(1H-pyrazol-4-yl)ethyl)(phenethyl)amino)-N,5,6-trimethylpyrimidine-2-carboxamide], the “AC1.4 Human” value was 0.007 µM and the EC50 turned out to be 0.155 µM.
